#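 Values below derive from 48-hour exposures of cells grown in 96-well plates, with endpoints linearly interpolated between the two concentrations bracketing the appropriate inhibition level. TGI marks complete inhibition of growth.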
# What was measured:
# Test in all cases: DTP human tumour cell line panel, 48 h
# OVCAR-5 ovarian = system: OVCAR-5 ovarian
# HOP-62 NSCLC = system: HOP-62 NSCLC
# MOLT-4 leukemia = system: MOLT-4 leukemia
# OVCAR-3 ovarian = system: OVCAR-3 ovarian
# SK-MEL-28 melanoma = system: SK-MEL-28 melanoma
# HOP-92 NSCLC = system: HOP-92 NSCLC
# MDA-MB-435 = system: MDA-MB-435
# SF-268 CNS = system: SF-268 CNS
# M14 melanoma = system: M14 melanoma
# NCI-H23 lung = system: NCI-H23 lung
# SNB-19 CNS = system: SNB-19 CNS
# HCT-15 colon = system: HCT-15 colon
# RPMI-8226 leukemia = system: RPMI-8226 leukemia
SMILES,TGI (OVCAR-5 ovarian) [µM],TGI (HOP-62 NSCLC) [µM],TGI (MOLT-4 leukemia) [µM],TGI (OVCAR-3 ovarian) [µM],TGI (SK-MEL-28 melanoma) [µM],TGI (HOP-92 NSCLC) [µM],TGI (MDA-MB-435) [µM],TGI (SF-268 CNS) [µM],TGI (M14 melanoma) [µM],TGI (NCI-H23 lung) [µM],TGI (SNB-19 CNS) [µM],TGI (HCT-15 colon) [µM],TGI (RPMI-8226 leukemia) [µM]
CCCNc1[nH]c(C(C)=O)c(N)c1C(=S)Nc1ccccc1,> 100,> 100,> 100,> 100,68.3,> 100,55.9,86.8,36.8,> 100,> 100,> 100,
Cc1cccc(C)c1NC(=S)/N=C/C1=C(O)c2ccccc2C1=O,> 100,> 100,,> 100,> 100,> 65.8,> 80.1,> 100,> 100,59.2,> 100,> 100,31
Cc1sc(N=Nc2c(O)[nH]c3ccccc23)nc1-c1ccccc1,49.3,33.1,65.4,27.2,79.8,45.2,66.8,38.5,65.2,34.6,37.3,27.9,
CNC(Cc1ccccc1)c1cccc(OC)c1O (stereo unspecified),> 100,> 100,> 100,> 100,> 100,> 100,> 100,> 100,> 100,> 100,> 100,> 100,
CC(C)CCNC(=O)c1ccc(CNC(=O)/C=C/c2ccc(-c3ccccc3[N+](=O)[O-])o2)cc1,> 100,60.8,> 100,> 100,> 100,,> 100,63.1,> 100,> 100,> 100,> 100,> 100
Cc1ccc2c(c1)NC(=O)C(N=[N+]=[N-])(c1ccccc1)C2=O (stereo unspecified),> 100,> 100,71.5,37.7,> 100,85.2,,> 100,33,45.9,98.1,52.2,
Cc1cc(S(=O)(=O)Nc2nc(N)n(C)n2)c(S)cc1Cl,> 10,> 10,> 10,> 10,> 10,,> 10,> 10,> 10,> 10,> 10,> 10,> 10
Nc1ncnc2c1ncn2CC(OCP(=O)(O)O)Oc1ccccc1 (stereo unspecified),> 100,> 100,,> 100,> 100,> 100,> 100,> 100,> 100,,> 100,> 100,> 100
CCNC1CC(C(C)(C)NCC)CC=C1C (stereo unspecified),> 100,> 100,> 100,> 100,> 100,> 100,> 100,> 100,> 100,> 100,> 100,> 100,
c1ccc(C2CC(N3CCOCC3)=Nc3ccccc3N2)cc1 (stereo unspecified),> 100,> 100,> 100,> 100,> 100,,> 100,> 100,> 100,> 100,> 100,> 100,> 100
C(/COc1cccnc1)=N\NC1=NCCN1,> 100,> 100,> 100,> 100,> 100,> 100,,> 100,> 100,> 100,> 100,> 100,> 100
Nc1nc(=O)n(C2OC(CO)C(O)C2O)cc1F (stereo unspecified),> 81.3,0.175,0.268,> 100,> 100,5.9,,> 100,,> 100,> 100,> 100,> 100
COc1cccc(/C=N/n2c(-c3ccccc3)n[nH]c2=O)c1,> 100,63.5,> 100,> 100,> 100,,> 100,39.8,> 100,90.5,> 100,> 100,> 100
CC[n+]1[b-](C(C)(C)C)n(/N=C(\C)C(C)(C)C)[b-](C(C)(C)C)[n+]1CC,> 100,> 100,> 100,> 100,> 100,,> 100,> 100,> 100,> 100,> 100,> 100,
CCOC(=O)c1sc2nc(SC)nc(Nc3ccc(OC)c(OC)c3)c2c1N,> 100,26,,> 100,52.7,25.4,> 100,80.9,> 100,> 100,56,> 100,> 100
C=CCCCC1(C)CCCCNC1=O (stereo unspecified),> 10,> 10,> 10,> 10,> 10,,> 10,> 10,> 10,> 10,> 10,> 10,> 10
CCCCCCCCCCCCCCCCCCNc1ccn(C2OC(CO)C(OP(=O)(O)OCC3CCC(n4ccc(N)nc4=O)O3)C2O)c(=O)n1 (stereo unspecified),> 100,> 100,10.2,> 100,> 100,> 100,> 100,> 100,> 100,> 100,> 100,> 100,
COc1cc(/C=C2\NC(=O)N(/C=C3\C(=O)Oc4ccccc4C3=O)C2=O)ccc1O,> 100,> 100,> 100,,,> 100,> 100,> 100,> 100,> 100,> 100,> 100,> 100

# Source: PubChem BioAssay (NCI)
